How the values were obtained:
subjects [1] = experiment: Example 1 dose titration study: continuous telemetry of heart rate (daily minimum heart rate, HRmin); type: in vivo, human
Experimental: (§1) Increasing doses of Compound A starting at 0.25 mg o.d. and ending at the maximal therapeutic dose of 10 mg o.d. are given to 28 subjects over 12 days as specified in Table 1 below. A placebo group and a positive control group receiving the 10 mg final therapeutic dose are also included in the study (each of 14 subjects).
On Day −1 (baseline), subjects undergo baseline assessments including 24 hour holter monitoring and telemetry assessments. Subjects remain on continuous telemetry, starting before breakfast on Day −1 and proceeding throughout the administration period up to Day 13 (24 hour after the last dose). Over this 13 day duration of continuous heart rate collection for each subject, one heart rate value is obtained every minute (‘minute unit heart rate’), representing the average heart rate value over that minute. The heart rate database for each subject contains approximately […] data points (13 days×24 hr×60 min).
The daily chronotropic effect is defined as the percent decrease in HRmin between two consecutive days. It is calculated on days 1 to 12.
(§2) Cardiac conduction intervals: arrhythmia monitoring includes the frequency and duration of sinus pauses (>2 sec and >3 sec) and atrio-ventricular blocks. Frequency and duration of atrial and ventricular ectopy and sinus rhythm are also recorded. The daily chronotropic effect is defined as the percent decrease in HRmin, (minimum heart rate) between two consecutive days. It is calculated on days 1 to 12.
The variation in daily minimum heart rate, HRmin (minimum of 24 hourly mean heart rates) over the course of the study is shown in FIG. 1.

subjects [2] = experiment: Example 1 dose titration study: Holter monitoring of ectopies (SVEs, VEs) and pauses >2 secs; type: in vivo, human; settings: for subjects with total number of SVEs 0-10 / subjects with total number of SVEs 11-20 / subjects with total number of SVEs 21-50 / subjects with total number of SVEs >50 / subjects with total number of VEs 0-5 / subjects with total number of VEs 6-10 / subjects with total number of VEs 11-30 / subjects with total number of VEs >30 / subjects with total number of pauses >2 secs: 0 / subjects with total number of pauses >2 secs: 1 / subjects with total number of pauses >2 secs: >1: any time during the 12-day treatment period
Experimental: as §1
Pharmacodynamic and safety assessments are performed up to 24 hours post last dose. Heart rhythm is assessed via 24 hr continuous holter monitoring on Day −1, Day 1, Day 11 and Day 12. For each dosing for each subject, the drug is administered as closely as practically possible to the time administered on Day −1. Safety assessments includes physical examinations, vital signs and body measurements, 12-lead ECG evaluations, standard clinical laboratory evaluations hematology, blood chemistry, urinalysis, adverse event and serious adverse event monitoring.
24-hour continuous Holter-ECG data are captured via a digital Holter monitor (12-lead, on Days […]), and transferred for interpretation and reporting. Holter monitoring starts approximately at 7:00 and the time of dose administration is regarded as the time “0 hours”. Holter “cuts” are derived from the dataset at 1 hour intervals starting from Day −1 and continuing for 24 hours or the end of the cleaned Holter monitoring dataset.
as §2

healthy subjects [3] = experiment: Absolute lymphocyte count after multiple daily doses (FIG. 2); type: in vivo, human
Source text: Preferred medications comprise medication for patients suffering from chronic longterm diseases, such as autoimmune diseases, e.g. multiple sclerosis, Polymyositis, lupus nephritis, rheumatoid arthritis, inflammatory bowel diseases or psoriasis. In an embodiment of the invention, medications are medications for patients suffering from multiple sclerosis, for example relapse remitting multiple sclerosis (RRMS) or primary progressive multiple sclerosis (PPMS), e.g. for patients suffering from RRMS.

healthy subjects [4] = settings: administration of 1.25 mg; cited from earlier work
multiple sclerosis = settings: humans; cited from earlier work
[5] = 10 mg daily from Day 1 (N = 14)
[6] = DT#1 titration 0.25 to 10 mg (N = 14)
[7] = DT#2 titration (Fibonacci) 0.25 to 10 mg (N = 14)

Question: For `CCc1cc(/C(C)=N/OCc2ccc(C3CCCCC3)c(C(F)(F)F)c2)ccc1CN1CC(C(=O)O)C1` [Compound A, 1-{4-[1-(4-cyclohexyl-3-trifluoromethyl-benzyloxyimino)-ethyl]-2-ethyl-benzyl}-azetidine-3-carboxylic acid], which “increase in heart rate” value (subjects [1]; 10 mg treatment group, from Day 1 to Day 2) is on record?
Answer: Its value is “approximately 5 BPM”.

Question: What about the “decrease in heart rate” value (subjects [1]; 10 mg treatment group, from Day -1 to Day 1) of the same compound?
Answer: Its value is “approximately 8 BPM”.

Question: What about the “further increase in heart rate” value (subjects [1]; 10 mg treatment group, from day 2 to day 4) of the same compound?
Answer: Its value is “approximately 3 BPM”.

Question: And the “gradual decrease in heart rate per day” value (subjects [1]; both titration groups (DT#1, DT#2), first seven days of the dose titration)?
Answer: Its value is 1-2 BPM per day.

Question: What about the “total reduction in heart rate” value (subjects [1]; both titration groups (DT#1, DT#2), over the first seven days of the dose titration) of the same compound?
Answer: The value was 4-5 BPM.

Question: And the “heart rate recovery after day 7” value (subjects [1]; both titration groups, over the next 2-3 days after the first seven days)?
Answer: The value was “the heart rate increased to approximately the placebo level”.

Question: And the “dip in heart rate on initiation of the 10 mg dose after titration” value (subjects [1]; titration groups, 10 mg dose initiated on Days 8 and 9, compared to preceding days)?
Answer: Its value is “did not result in a significant dip in heart rate”.

Question: And the “effect of dose titration regimen on negative chronotropic effect” value (subjects [1]; titration regimen vs Day 1 of 10 mg dose treatment initiation)?
Answer: Its value is “attenuates the negative chronotropic effect”.

Question: What about the “subjects with total number of SVEs 0-10” value (subjects [2]; [5]) of the same compound?
Answer: The value was 1 (7.1%) n (%).

Question: And the “subjects with total number of SVEs 11-20” value (subjects [2]; [5])?
Answer: Its value is 2 (14.3%) n (%).

Question: What about the “subjects with total number of SVEs 21-50” value (subjects [2]; [5]) of the same compound?
Answer: The value was 5 (35.7%) n (%).

Question: And the “subjects with total number of SVEs >50” value (subjects [2]; [5])?
Answer: The value was 6 (42.9%) n (%).

Question: What about the “subjects with total number of VEs 0-5” value (subjects [2]; [5]) of the same compound?
Answer: Its value is 6 (42.9%) n (%).

Question: What about the “subjects with total number of VEs 6-10” value (subjects [2]; [5]) of the same compound?
Answer: Its value is 4 (28.6%) n (%).

Question: What about the “subjects with total number of VEs 11-30” value (subjects [2]; [5]) of the same compound?
Answer: The value was 1 (7.1%) n (%).

Question: What about the “subjects with total number of VEs >30” value (subjects [2]; [5]) of the same compound?
Answer: Its value is 3 (21.4%) n (%).

Question: What about the “subjects with total number of pauses >2 secs: 0” value (shortened to “subjects … of pauses >2 secs: 0”) (subjects [2]; [5]) of the same compound?
Answer: Its value is 10 (71.4%) n (%).

Question: And the “subjects with total number of pauses >2 secs: 1” value (“subjects … of pauses >2 secs: 1” for short) (subjects [2]; [5])?
Answer: The value was 1 (7.1%) n (%).

Question: What about the “subjects with total number of pauses >2 secs: >1” value (“subjects with total number … >1” below) (subjects [2]; [5]) of the same compound?
Answer: The value was 3 (21.4%) n (%).

Question: What about the “subjects with total number of SVEs 0-10” value (subjects [2]; [6]) of the same compound?
Answer: The value was 1 (7.1%) n (%).

Question: And the “subjects with total number of SVEs 11-20” value (subjects [2]; [6])?
Answer: The value was 3 (21.4%) n (%).

Question: And the “subjects with total number of SVEs 21-50” value (subjects [2]; [6])?
Answer: Its value is 2 (14.3%) n (%).

Question: What about the “subjects with total number of SVEs >50” value (subjects [2]; [6]) of the same compound?
Answer: The value was 8 (57.1%) n (%).

Question: What about the “subjects with total number of VEs 0-5” value (subjects [2]; [6]) of the same compound?
Answer: Its value is 3 (21.4%) n (%).

Question: And the “subjects with total number of VEs 6-10” value (subjects [2]; [6])?
Answer: Its value is 5 (35.7%) n (%).

Question: What about the “subjects with total number of VEs 11-30” value (subjects [2]; [6]) of the same compound?
Answer: The value was 4 (28.6%) n (%).

Question: What about the “subjects with total number of VEs >30” value (subjects [2]; [6]) of the same compound?
Answer: Its value is 2 (14.3%) n (%).

Question: What about the “subjects … of pauses >2 secs: 0” value (subjects [2]; [6]) of the same compound?
Answer: The value was 10 (71.4%) n (%).

Question: And the “subjects … of pauses >2 secs: 1” value (subjects [2]; [6])?
Answer: The value was 1 (7.1%) n (%).

Question: What about the “subjects with total number … >1” value (subjects [2]; [6]) of the same compound?
Answer: The value was 3 (21.4%) n (%).

Question: What about the “subjects with total number of SVEs 0-10” value (subjects [2]; [7]) of the same compound?
Answer: The value was 0 n (%).

Question: And the “subjects with total number of SVEs 11-20” value (subjects [2]; [7])?
Answer: Its value is 1 (7.1%) n (%).

Question: And the “subjects with total number of SVEs 21-50” value (subjects [2]; [7])?
Answer: Its value is 4 (28.6%) n (%).

Question: And the “subjects with total number of SVEs >50” value (subjects [2]; [7])?
Answer: The value was 9 (64.3%) n (%).

Question: And the “subjects with total number of VEs 0-5” value (subjects [2]; [7])?
Answer: Its value is 3 (21.4%) n (%).

Question: What about the “subjects with total number of VEs 6-10” value (subjects [2]; [7]) of the same compound?
Answer: The value was 2 (14.3%) n (%).

Question: What about the “subjects with total number of VEs 11-30” value (subjects [2]; [7]) of the same compound?
Answer: Its value is 5 (35.7%) n (%).

Question: And the “subjects with total number of VEs >30” value (subjects [2]; [7])?
Answer: The value was 4 (28.6%) n (%).

Question: And the “subjects … of pauses >2 secs: 0” value (subjects [2]; [7])?
Answer: Its value is 13 (92.9%) n (%).

Question: What about the “subjects … of pauses >2 secs: 1” value (subjects [2]; [7]) of the same compound?
Answer: Its value is 0 n (%).

Question: What about the “subjects with total number … >1” value (subjects [2]; [7]) of the same compound?
Answer: The value was 1 (7.1%) n (%).

Question: What about the “number of heart pauses greater than 2 seconds, comparison of regimens” value (subjects [2]; second titration regimen DT#2 (Fibonacci sequence) vs the other active treatment regimens) of the same compound?
Answer: Its value is “lower number of heart pauses greater than 2 seconds”.

Question: And the “absolute lymphocyte count in the blood” value (healthy subjects [3])?
Answer: Its value is “reduces the absolute lymphocyte count”.

Question: Which “decrease in heart rate” value (healthy subjects [4]) does the source give for `CCCCCCCCc1ccc(CCC(N)(CO)CO)cc1` [FTY720] here?
Answer: Its value is “approximately 8 beats/min (BPM)”.

Question: What about the “efficacy in the treatment of multiple sclerosis” value (multiple sclerosis) of the same compound?
Answer: The value was “has been demonstrated in humans”.

Reference: US8492441B2, “Dosage regimen of an S1P receptor agonist” (Novartis AG, priority 2008, dated 2013)
